The results in this text go back to patent US12419890B2, “Administration of sumo-activating enzyme inhibitor and checkpoint inhibitors” (Takeda Pharmaceutical Company Limited, priority 2019, dated 2025).

For assay [1], the system named is CT26 syngeneic mouse colon fibroblast carcinoma-derived subcutaneous tumor. Kind of assay: CT26 Study 1: mouse CT26 syngeneic tumor model, individual tumor volume. It counts as in vivo. The note with it: Compound I-263a 7.5 mg/kg IV Day 1, 4; anti-mPD-1 10 mg/kg IP Day 1, 4, 8, 11; 8 mice/group. As for the experimental part: (§1) CT26 Study 1: CT26 is a mouse colon fibroblast carcinoma cell line. CT26 mouse syngeneic tumor model was generated by subcutaneous inoculation with 0.2×10^6 CT-26 cells (cell suspension) in 12 weeks old female BALB/c mice (Jackson Laboratory, 600 Main St, Bar Harbor, ME) in the flank. When the mean tumor volume reached approximately 60 mm^3, the animals were randomized into one vehicle control and three treatment groups (n=8/group). Mice were then dosed with 20% HPbCD or Compound I-263a or anti-mouse PD-1 antibody over a 14-day period. Tumor growth and body weight were measured twice per week during the treatment and post-treatment periods, and mice were humanely euthanized once they had reached their humane endpoint.
Study 1: A 0.825 mg/mL stock solution of Compound I-263a was formulated weekly in 20% HPβCD and administered intravenously (IV) based on exact animal body weight on each day of treatment, using a dosing volume of 10 mL/kg body weight. Final doses received were 7.5 mg/kg. Dosing volume for Compound I-263a was 0.2 mL. […]
(§2) Tumors were measured twice weekly using vernier calipers. Tumor volumes were calculated using standard equation: V=W^2×L/2, where V=volume, W=width, and L=length for the tumor. […] Tumor size and body weight were measured twice a week for the duration of the study. […]

For assay [2] the test system is unchanged. Nature of the assay: CT26 Study 2: mouse CT26 syngeneic tumor model, individual tumor volume. It counts as in vivo. The note with it: Compound I-263a 7.5 mg/kg IV and anti-mPD-1 10 mg/kg IP, Day 0, 3, 7, 10, 14; 9 tumors/group. As for the experimental part: as §1, with “2:” for “1:”, “10” for “12”, “(Vital River Laboratory Animal Technology Co., Ltd., Beijing, China)” for “(Jackson Laboratory, 600 Main St, Bar Harbor, ME)”, “40” for “60”, “(n=9/group).” for “(n=8/group).”
Study 2: A 0.75 mg/mL stock solution of Compound I-263a was formulated weekly in 20% HPβCD and administered intravenously (IV) based on exact animal body weight on each day of treatment, using a dosing volume of 10 mL/kg body weight. Final doses received were 7.5 mg/kg. Dosing volume for Compound I-263a was 0.2 mL. […]
as §2

Turning to `Cc1sc(C(=O)c2cncnc2N[C@@H]2C[C@H](COS(N)(=O)=O)[C@@H](O)C2)cc1[C@@H]1NCCc2ccc(Cl)cc21` [Compound I-263a, [(1R,2S,4R)-4-{[5-({4-[(1R)-7-chloro-1,2,3,4-tetrahydroisoquinolin-1-yl]-5-methyl-2-thienyl}carbonyl)pyrimidin-4-yl]amino}-2-hydroxycyclopentyl]methyl sulfamate], the “tumor growth inhibition relative to vehicle-treated tumors” value in assay [1] and in assay [2] was “did not show any tumor growth inhibition” throughout.
